The text below walks through data of ChEMBL document CHEMBL4725258, “2β-3,4-Unsaturated sialic acid derivatives: Synthesis optimization, and biological evaluation as Newcastle disease virus hemagglutinin-neuraminidase inhibitors” (Bioorg Med Chem, 2020).

The target in one experiment is T1, Sialidase-3 (Homo sapiens, UniProt Q9UQ49).
T1 sequence (Q9UQ49 whole entry): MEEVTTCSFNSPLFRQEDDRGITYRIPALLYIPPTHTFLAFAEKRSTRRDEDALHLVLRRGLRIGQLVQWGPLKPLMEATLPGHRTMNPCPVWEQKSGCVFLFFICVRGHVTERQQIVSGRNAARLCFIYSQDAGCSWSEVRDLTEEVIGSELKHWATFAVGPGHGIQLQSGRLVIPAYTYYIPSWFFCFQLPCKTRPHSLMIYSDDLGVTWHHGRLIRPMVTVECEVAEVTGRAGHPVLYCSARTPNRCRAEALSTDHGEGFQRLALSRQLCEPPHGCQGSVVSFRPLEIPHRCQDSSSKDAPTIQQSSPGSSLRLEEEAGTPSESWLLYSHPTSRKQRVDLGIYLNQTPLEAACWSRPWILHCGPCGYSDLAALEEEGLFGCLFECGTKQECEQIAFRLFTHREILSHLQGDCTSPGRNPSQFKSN
In words: Inhibition of human NEU3 expressed in HEK293A cells as substrate incubated for 1 hr by spectrofluorometric analysis. The arrangement: species or system HEK293.

A short description of experiment [1]: Inhibition of Newcastle disease virus neuraminidase using 4-MUNeu5Ac as substrate incubated for 15 mins by spectrofluorometric analysis. Details: species or system avian paramyxovirus 1.

For orientation: IC50 means the midpoint of a concentration-inhibition curve. Lower therefore signals inhibition by little substance. For the molecule `CCCCCCCCS[C@@]1(C(=O)O)C=C[C@@H](NC(C)=O)[C@H]([C@H](O)[C@H](O)CO)O1`, the half-maximal inhibitory concentration (IC50) against Sialidase-3 is above 1000 µM; in experiment [1], 406 µM. Turning to `CO[C@]1(C(=O)O)C=C[C@@H](NC(C)=O)[C@H]([C@H](O)[C@H](O)CO)O1`, the 50% inhibitory concentration (IC50) (against Sialidase-3; in experiment [1]) was above 1000 µM throughout. Turning to `O=C(O)C1=C[C@H](O)[C@@H](NC(=O)C(F)(F)F)[C@H]([C@H](O)[C@H](O)CO)O1`, the 50% inhibitory concentration (IC50) stood at 3.9 µM against Sialidase-3 and 2.45 µM in experiment [1].

With `CC(=O)N[C@@H]1C=C[C@@](OC(C)C)(C(=O)O)O[C@H]1[C@H](O)[C@H](O)CO`, the IC50 is above 1000 µM against Sialidase-3 and 148 µM in experiment [1]. On to `CC(=O)N[C@@H]1C=C[C@](OC(C)C)(C(=O)O)O[C@H]1[C@H](O)[C@H](O)CO`, for which the concentration for half-maximal inhibition (IC50) is above 1000 µM against Sialidase-3 and 511 µM in experiment [1]. With `CCS[C@]1(C(=O)O)C=C[C@@H](NC(C)=O)[C@H]([C@H](O)[C@H](O)CO)O1`, the IC50 is above 1000 µM at Sialidase-3 and 100 µM in experiment [1].

In experiment [1], `[N-]=[N+]=N[C@H]1C=C(C(=O)O)O[C@@H]([C@H](O)[C@H](O)CO)[C@@H]1NC(=O)C(F)(F)C(F)(F)C(F)(F)F` registered a half-maximal inhibitory concentration (IC50) of 0.213 µM. As to `CCS[C@@]1(C(=O)O)C=C[C@@H](NC(C)=O)[C@H]([C@H](O)[C@H](O)CO)O1`, the IC50 against Sialidase-3 is above 1000 µM; in experiment [1] it was 248 µM. For `CCCO[C@@]1(C(=O)O)C=C[C@@H](NC(C)=O)[C@H]([C@H](O)[C@H](O)CO)O1`, in that order: above 1000 µM and 512 µM. For the molecule `CCCCO[C@@]1(C(=O)O)C=C[C@@H](NC(C)=O)[C@H]([C@H](O)[C@H](O)CO)O1`, the IC50 on Sialidase-3 is above 1000 µM; in experiment [1] it was 485 µM. Consider `CCO[C@@]1(C(=O)O)C=C[C@@H](NC(C)=O)[C@H]([C@H](O)[C@H](O)CO)O1`, for which the 50% inhibitory concentration (IC50) at Sialidase-3 was above 1000 µM; in experiment [1] it was 384 µM.

Consider `CO[C@@]1(C(=O)O)C=C[C@@H](NC(C)=O)[C@H]([C@H](O)[C@H](O)CO)O1`, for which the IC50 (on Sialidase-3; in experiment [1]) was above 1000 µM each time. Regarding `CC(=O)N[C@H]1[C@H]([C@H](O)[C@H](O)CO)OC(C(=O)O)=C[C@@H]1O` [NEU5AC2EN], the 50% inhibitory concentration (IC50) on Sialidase-3 came out at 2.4 µM; in experiment [1] it was 13 µM.
